Results taken from PMC8800111 (The Journal of Biological Chemistry, 2021).

Experiments:
[1] = tested on: STAT3 target genes in U3A cells; test: STAT3 target gene expression by qRT-PCR in U3A cells; assay type: cell-based, human; details: 10 μM 1 h, OSM 90 min
[2] = biological target: proteins of U3A human fibrosarcoma cells (4462 proteins detected) (Homo sapiens, UniProt Q9BXS5); assay type: cell-based; details: protein AP1M1; U3A cells
[3] = biological target: proteins of U3A human fibrosarcoma cells (4462 proteins detected) (Homo sapiens, UniProt Q9BY32); assay type: cell-based; details: protein ITPA; soluble abundance after heat, U3A cells
[4] = biological target: proteins of U3A human fibrosarcoma cells (4462 proteins detected) (Homo sapiens, UniProt O95197); assay type: cell-based; details: protein RTN3; U3A cells
proteins of U3A human fibrosarcoma cells (4462 proteins detected) (Homo sapiens, UniProt O95197), sequence (O95197 whole entry): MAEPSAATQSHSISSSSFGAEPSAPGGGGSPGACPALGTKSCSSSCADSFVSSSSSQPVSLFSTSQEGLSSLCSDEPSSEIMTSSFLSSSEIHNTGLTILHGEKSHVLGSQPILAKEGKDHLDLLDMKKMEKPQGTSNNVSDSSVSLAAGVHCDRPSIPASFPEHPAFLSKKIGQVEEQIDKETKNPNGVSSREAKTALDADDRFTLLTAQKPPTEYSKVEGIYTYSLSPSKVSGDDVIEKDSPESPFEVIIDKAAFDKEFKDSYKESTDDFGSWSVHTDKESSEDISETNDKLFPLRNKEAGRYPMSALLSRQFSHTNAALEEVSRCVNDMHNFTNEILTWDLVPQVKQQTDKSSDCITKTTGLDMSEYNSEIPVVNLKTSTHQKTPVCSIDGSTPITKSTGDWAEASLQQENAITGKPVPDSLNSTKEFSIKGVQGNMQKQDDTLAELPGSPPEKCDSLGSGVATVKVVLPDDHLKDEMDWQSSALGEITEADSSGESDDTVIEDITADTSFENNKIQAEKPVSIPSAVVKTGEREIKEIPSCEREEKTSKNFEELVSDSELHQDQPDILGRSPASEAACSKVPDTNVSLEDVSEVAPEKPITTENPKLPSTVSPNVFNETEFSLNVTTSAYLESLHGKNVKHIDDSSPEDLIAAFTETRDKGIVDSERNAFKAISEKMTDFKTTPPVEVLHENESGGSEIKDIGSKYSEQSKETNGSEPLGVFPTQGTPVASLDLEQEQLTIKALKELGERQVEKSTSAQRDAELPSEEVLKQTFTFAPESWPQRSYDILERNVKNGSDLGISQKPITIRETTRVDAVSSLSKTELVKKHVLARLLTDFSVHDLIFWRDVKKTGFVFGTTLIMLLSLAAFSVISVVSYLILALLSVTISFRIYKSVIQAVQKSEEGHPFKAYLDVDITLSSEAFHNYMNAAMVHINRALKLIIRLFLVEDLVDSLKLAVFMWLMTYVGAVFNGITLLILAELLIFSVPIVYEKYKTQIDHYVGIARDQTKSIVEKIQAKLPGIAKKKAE

[5] = biological target: proteins of U3A human fibrosarcoma cells (4462 proteins detected) (Homo sapiens, UniProt Q9H3P7); assay type: cell-based; details: protein ACBD3; U3A, 10 μM, 2 h
proteins of U3A human fibrosarcoma cells (4462 proteins detected) (Homo sapiens, UniProt Q9H3P7), sequence (Q9H3P7 whole entry): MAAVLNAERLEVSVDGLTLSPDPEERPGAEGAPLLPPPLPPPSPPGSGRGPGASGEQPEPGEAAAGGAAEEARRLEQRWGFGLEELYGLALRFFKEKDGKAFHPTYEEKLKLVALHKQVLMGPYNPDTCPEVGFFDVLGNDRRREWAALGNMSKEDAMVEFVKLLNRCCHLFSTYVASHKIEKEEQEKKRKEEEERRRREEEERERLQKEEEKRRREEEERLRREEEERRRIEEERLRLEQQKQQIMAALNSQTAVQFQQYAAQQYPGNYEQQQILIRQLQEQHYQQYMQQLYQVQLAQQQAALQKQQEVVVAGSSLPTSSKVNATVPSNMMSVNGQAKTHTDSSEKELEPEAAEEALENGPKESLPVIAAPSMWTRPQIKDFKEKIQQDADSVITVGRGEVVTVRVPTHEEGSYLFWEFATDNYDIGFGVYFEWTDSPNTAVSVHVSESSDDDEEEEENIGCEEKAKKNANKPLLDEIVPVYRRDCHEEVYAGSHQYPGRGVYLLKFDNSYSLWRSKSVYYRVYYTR

[6] = biological target: proteins of U3A human fibrosarcoma cells (4462 proteins detected) (Homo sapiens, UniProt Q6P3W7); assay type: cell-based; details: protein SCYL2, U3A cells
proteins of U3A human fibrosarcoma cells (4462 proteins detected) (Homo sapiens, UniProt Q6P3W7), sequence (Q6P3W7 whole entry): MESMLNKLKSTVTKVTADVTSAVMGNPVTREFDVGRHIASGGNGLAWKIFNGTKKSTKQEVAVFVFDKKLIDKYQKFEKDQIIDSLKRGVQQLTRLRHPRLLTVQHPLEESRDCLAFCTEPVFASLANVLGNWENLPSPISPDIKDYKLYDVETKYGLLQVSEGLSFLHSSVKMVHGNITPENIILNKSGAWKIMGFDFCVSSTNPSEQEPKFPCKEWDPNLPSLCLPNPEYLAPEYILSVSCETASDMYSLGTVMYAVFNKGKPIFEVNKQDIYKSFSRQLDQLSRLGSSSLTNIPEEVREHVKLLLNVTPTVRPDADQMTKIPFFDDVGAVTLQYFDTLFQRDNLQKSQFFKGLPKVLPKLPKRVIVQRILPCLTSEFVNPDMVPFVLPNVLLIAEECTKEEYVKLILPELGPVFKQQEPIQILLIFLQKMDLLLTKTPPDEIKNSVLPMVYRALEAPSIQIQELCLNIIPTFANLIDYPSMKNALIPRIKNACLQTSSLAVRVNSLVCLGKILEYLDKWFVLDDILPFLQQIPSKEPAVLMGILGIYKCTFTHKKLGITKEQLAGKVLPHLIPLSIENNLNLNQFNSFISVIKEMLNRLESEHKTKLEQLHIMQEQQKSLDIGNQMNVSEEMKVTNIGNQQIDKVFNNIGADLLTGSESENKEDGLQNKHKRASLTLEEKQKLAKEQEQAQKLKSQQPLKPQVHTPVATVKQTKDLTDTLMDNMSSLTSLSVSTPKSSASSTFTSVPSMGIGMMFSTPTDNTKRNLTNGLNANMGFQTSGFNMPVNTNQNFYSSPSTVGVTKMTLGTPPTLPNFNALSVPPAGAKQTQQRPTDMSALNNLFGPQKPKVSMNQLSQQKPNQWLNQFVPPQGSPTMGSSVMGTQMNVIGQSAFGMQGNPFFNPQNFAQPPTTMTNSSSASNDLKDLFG

[7] = Apoptosis assay (FITC annexin V / propidium iodide flow cytometry); assay type: cell-based; details: human; U3A cells, 6 h time point, same treatment as ATP assay; read-out: viable cells
DHFR [8] = biological target: T1, DHFR (Homo sapiens, UniProt P00374); test: Cellular thermal shift assay (CETSA) in U3A cell lysate; assay type: binding; details: 10 μM, 10 min
T1 sequence (P00374 1-187): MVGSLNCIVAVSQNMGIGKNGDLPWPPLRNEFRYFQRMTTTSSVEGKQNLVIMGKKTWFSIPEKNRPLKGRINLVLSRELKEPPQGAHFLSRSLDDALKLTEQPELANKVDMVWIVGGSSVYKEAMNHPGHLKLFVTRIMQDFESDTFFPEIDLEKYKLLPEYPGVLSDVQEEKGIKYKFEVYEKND
Experimental: (§1) Protein abundance was measured by immunoblotting and band quantification.
(§2) U3A cells were cultured in DMEM (Thermo Fisher Scientific) with 10% heat-inactivated fetal bovine serum and 1% penicillin/streptomycin. […] Cells were washed once with PBS, harvested using trypsin, and centrifuged at 300g. The pellet was resuspended in Tris-buffered saline (TBS) supplemented with cOmplete protease inhibitor cocktail (Roche), aliquoted (50 μl; 8 × 10^5 cells per temperature) into PCR strip tubes, and heated at the indicated temperature in a Veriti Thermal Cycler (Applied Biosystems) for 3 min, then cooled for another 3 min at room temperature. Cells were then lysed by freeze–thawing three times with 3-min incubations in an ethanol/dry ice bath and a water bath at 37 °C. The lysates were then centrifuged at 17,000g for 20 min at 4 °C to remove cellular debris and pelleted protein aggregates. Supernatants (40 μl) were transferred to new tubes and prepared for immunoblotting. […] Briefly, U3A cells in exponential growth rate were collected, resuspended in TBS supplemented with cOmplete protease inhibitor cocktail (Roche), lysed by freeze–thaw cycle, and centrifuged at 17,000g for 20 min at 4 °C. […] Band intensities were quantified using Fiji ([42]) and then plotted and fitted in GraphPad Prism (GraphPad Software, Inc) to obtain apparent Tagg values.

[9] = tested on: STAT3 DNA binding in SKBR3 cells; test: Chromatin immunoprecipitation, STAT3 binding at target genes; assay type: cell-based, human; details: 10 μM 1 h, 10 ng/ml LIF 30 min
Experimental: (§3) Nuclei were centrifuged at 660g for 5 min at 4 °C and lysed in 300 μl of nuclear lysis buffer (50 mM Tris [pH 8.1], 10 mM EDTA, 1% SDS, and phosphatase and protease inhibitors). […] Lysate was then added to 60 μl of Protein A/G PLUS agarose beads (catalog no.: 2003; Santa Cruz Biotechnology) and rotated for 4 to 6 h at 4 °C. […] Beads were resuspended in 150 μl elution buffer (100 mM sodium bicarbonate and 1% SDS) and incubated overnight at 65 °C. DNA was purified using a PCR Purification Kit (Qiagen) according to the manufacturer's protocol. qPCR was performed using the indicated primers (Table S3). Results were normalized to input.

[10] = tested on: RNA pol II recruitment in SKBR3 cells; test: Chromatin immunoprecipitation, RNA polymerase II binding at target genes; assay type: cell-based, human; details: 10 μM 1 h, 10 ng/ml LIF 30 min
Experimental: as §3

STAT3-dependent genes = tested on: STAT3-dependent genes; parameters: method as in PMID 33373063; details: chronic lymphocytic leukemia; cited from earlier work
[11] = tested on: nuclear pSTAT3 and total STAT3 in U3A cells; test: Nuclear and cytoplasmic fractionation immunoblotting in OSM-stimulated U3A cells; assay type: cell-based, human; details: 10 μM 1 h, 10 ng/ml OSM 30 min
Experimental: It should be noted that, given the variability inherent in chromatin immunoprecipitation (IP), few of the individual changes in binding reached statistical significance. However, the trend in each of the five genes was identical.
B, MDA-MB-468 cells were treated with 5 μM PYR for 24 h. Nuclear and cytoplasmic fractions were analyzed by immunoblotting with the indicated antibodies. PARP and tubulin were used as nuclear and cytoplasmic markers, respectively. C, U3A human fibrosarcoma cells stably expressing STAT3-dependent luciferase were pretreated with 10 μM PYR for 1 h and stimulated with 10 ng/ml oncostatin M (OSM) for 30 min. Nuclear and cytoplasmic fractions were analyzed by immunoblotting with the indicated antibodies. […] D, SKBR3 cells were treated with 10 μM PYR for 1 h, stimulated with 10 ng/ml leukemia inhibitory factor (LIF) for 30 min, and analyzed by chromatin immunoprecipitation with antibodies to STAT3 and RNA pol II (pol II). Binding at the indicated target genes was assessed by quantitative RT–PCR. Data are expressed as percent of input. […]
Cells were lysed on ice for 15 min in either radioimmunoprecipitation assay lysis buffer (Boston BioProducts) or EBC lysis buffer (50 mM Tris [pH 8.0], 250 mM NaCl, and 0.5% Nonidet-P40 [NP-40]) containing phosphatase and complete protease inhibitors (Roche). […] Immunoblots were developed, and band intensity was quantified using Fiji ([42]).

CHCHD2 = CHCHD2 (Homo sapiens, UniProt Q9Y6H1); test: Cellular thermal shift assay (CETSA) in intact U3A cells; assay type: cell-based; details: 10 μM, 10 min
CHCHD2, sequence (Q9Y6H1 whole entry): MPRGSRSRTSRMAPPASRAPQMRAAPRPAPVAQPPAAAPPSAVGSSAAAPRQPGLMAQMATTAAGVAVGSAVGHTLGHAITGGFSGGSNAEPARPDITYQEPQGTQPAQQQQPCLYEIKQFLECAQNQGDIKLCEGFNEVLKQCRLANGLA
Experimental: as §1
U3A cells were cultured in DMEM (Thermo Fisher Scientific) with 10% heat-inactivated fetal bovine serum and 1% penicillin/streptomycin. […] Cells were washed once with PBS, harvested using trypsin, and centrifuged at 300g. The pellet was resuspended in Tris-buffered saline (TBS) supplemented with cOmplete protease inhibitor cocktail (Roche), aliquoted (50 μl; 8 × 10^5 cells per temperature) into PCR strip tubes, and heated at the indicated temperature in a Veriti Thermal Cycler (Applied Biosystems) for 3 min, then cooled for another 3 min at room temperature. Cells were then lysed by freeze–thawing three times with 3-min incubations in an ethanol/dry ice bath and a water bath at 37 °C. The lysates were then centrifuged at 17,000g for 20 min at 4 °C to remove cellular debris and pelleted protein aggregates. Supernatants (40 μl) were transferred to new tubes and prepared for immunoblotting. […] DHFR stabilization was evaluated with superoxide dismutase 1 as a thermostable loading control. Band intensities were quantified using Fiji ([42]) and then plotted and fitted in GraphPad Prism (GraphPad Software, Inc) to obtain apparent Tagg values.
(A) DHFR protein levels in Fig 2C were quantified and plotted. […] Soluble protein levels were analyzed by immunoblotting with the indicated antibodies. […]

STAT5 = details: original high-throughput screen; cited from earlier work
[12] = tested on: STAT3 target genes in SKBR3 cells; test: STAT3 target gene expression by qRT-PCR in SKBR3 cells; assay type: cell-based, human; details: 10 μM 1 h, OSM 60 min
Experimental: Cells were stimulated with 10 ng/ml interleukin 6 (Peprotech) or 10 ng/ml OSM (Peprotech). Cells were stimulated for 15 min for whole cell lysate immunoblotting, 60 to 90 min for qRT–PCR, and 5 to 6 h for luciferase reporter assays.
Total RNA was extracted from cells using the RNeasy Mini Kit (Qiagen). Complementary DNA was generated using the TaqMan Reverse Transcription Reagents (Invitrogen). qPCR was performed in triplicate or quadruplicate using the Power SYBR Green PCR Master Mix (Invitrogen) on a 7500 Real-Time PCR System (Applied Biosystems) or a QuantStudio 6 Flex Real-Time PCR System (Applied Biosystems). Specificity of amplification was confirmed by melting curve analysis. Cycle threshold (CT) values for target genes were normalized to the endogenous reference gene GAPDH. Primer sequences (Table S3) were designed from the University of California Santa Cruz genome browser reference mRNA sequences using Primer3 ([43]).

DHFR [13] = biological target: T1, DHFR
DHFR [14] = biological target: T1, DHFR; test: Cellular thermal shift assay (CETSA) in intact U3A cells; assay type: cell-based; details: 10 μM, 10 min
Experimental: as §1, §2

[15] = 11 μM DHFR, 130 μM ligand, 200 μM NADPH, […] DMSO, 25 °C

proteins of U3A human fibrosarcoma cells (4462 proteins detected) (Homo sapiens, UniProt Q9BXS5), sequence (Q9BXS5 whole entry): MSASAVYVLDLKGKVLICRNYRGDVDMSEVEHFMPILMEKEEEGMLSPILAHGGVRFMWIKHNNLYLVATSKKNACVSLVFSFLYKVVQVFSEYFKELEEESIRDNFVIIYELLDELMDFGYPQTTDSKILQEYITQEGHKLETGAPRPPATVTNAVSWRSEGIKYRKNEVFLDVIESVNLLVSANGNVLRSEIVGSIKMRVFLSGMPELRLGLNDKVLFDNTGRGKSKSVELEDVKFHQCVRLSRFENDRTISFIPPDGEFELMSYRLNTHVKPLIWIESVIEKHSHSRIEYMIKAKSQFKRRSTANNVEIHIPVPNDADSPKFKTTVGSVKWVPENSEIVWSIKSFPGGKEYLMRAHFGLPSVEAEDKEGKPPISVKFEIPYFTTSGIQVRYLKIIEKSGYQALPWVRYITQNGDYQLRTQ

## CCc1nc(N)nc(N)c1-c1ccc(Cl)cc1 [pyrimethamine]
[1]
  OSM-stimulated BCL6 expression: significantly reduced
[2]
  Log2 (PYR/DMSO): 0.17
[3]
  Log2 (PYR/DMSO): 0.15
[4]
  Log2 (PYR/DMSO): 0.16
[5]
  Log2 (PYR/DMSO), ACBD3: 0.24
[6]
  Log2 (PYR/DMSO): -0.04
[7]
  viability at 6 h, 10 μM: ~100%
DHFR [8]
  DHFR aggregation temperature (Tagg) in the presence of drug: ~53.2 °C
[9]
  LIF-stimulated STAT3 binding at BCL6: minimal reduction
[10]
  pol II recruitment at BCL6: complete loss
STAT3-dependent genes
  inhibition of expression of STAT3-dependent genes in patients: on-target activity
[11]
  OSM-stimulated nuclear pSTAT3 or total STAT3: no effect
CHCHD2
  CHCHD2 stabilization by CETSA: failed to validate
STAT5
  transcriptional activity of STAT5: no effect
[12]
  OSM-stimulated BCL6 expression: significantly reduced
DHFR [13]; [15]
  ΔH: -11.6 ± 0.7 kcal/mol
  ΔS: −2.8 ± 1 cal/mol/°C
DHFR [13]; one-site model
  stoichiometry: 1.0 ± 0.2 sites
DHFR [14]
  DHFR aggregation temperature (Tagg) in the presence of drug: 50.6 °C
